Measured values from patent US11330821B2, “Herbicidal compounds” (Syngenta Participations AG, priority 2015, dated 2022).

Tests used:
Format in all cases: in vivo
Details in all cases: post-emergence spray, evaluated after 13 days
[1] = tested on: Amaranthus retroflexus (AMARE); test: Post-emergence efficacy, Amaranthus retroflexus
Method: (§1) B1 Post-Emergence Efficacy
(§2) Seeds of a variety of test species are shown in standard soil in pots:—Solanum nigrum (SOLNI), Amaranthus retroflexus (AMARE), Setaria faberi (SETFA), Echinochloa crus-galli (ECHCG), Ipomoea hederacea (IPOHE), Lolium perenne (LOLPE). After 8 days cultivation (post-emergence) under controlled conditions in a glasshouse (at 24/16° C., day/night; 14 hours light; 65% humidity), the plants are sprayed with an aqueous spray solution derived from the formulation of the technical active ingredient in acetone/water (50:50) solution containing 0.5% Tween 20 (polyoxyethylene sorbitan monolaurate, CAS RN 9005-64-5). Compounds are applied at 1000 and 62.5 g/ha. The test plants are then grown in a glasshouse under controlled conditions in a glasshouse (at 24/16° C., day/night; 14 hours light; 65% humidity) and watered twice daily. After 13 days, the test is evaluated for the percentage damage caused to the plant. The biological activities are assessed on a five point scale (5=80-100%; 4=60-79%; 3=40-59%; 2=20-39%; 1=0-19%).

Lolium perenne (LOLPE) = test: Post-emergence efficacy, Lolium perenne
Method: as §1, §2

[2] = tested on: Echinochloa crus-galli (ECHCG); test: Post-emergence efficacy, Echinochloa crus-galli
Method: as §1, §2

Solanum nigrum (SOLNI) = test: Post-emergence efficacy, Solanum nigrum
Method: as §1, §2

Setaria faberi (SETFA) = test: Post-emergence efficacy, Setaria faberi
Method: as §1, §2

[3] = tested on: Ipomoea hederacea (IPOHE); test: Post-emergence efficacy, Ipomoea hederacea
Method: as §1, §2

## Cc1nn(C)c(=O)c(-c2c(Cl)ccc(Cl)c2OCc2ccncc2)c1O [Compound 1.03]
[1]; 62.5 g/ha
  AMARE percentage damage caused to the plant (five point scale): 1 (1=0-19%)
[1]; 1000 g/ha
  AMARE percentage damage caused to the plant (five point scale): 4 (4=60-79%)
Lolium perenne (LOLPE); 62.5 g/ha
  LOLPE percentage damage caused to the plant (five point scale): 1 (1=0-19%)
Lolium perenne (LOLPE); 1000 g/ha
  LOLPE percentage damage caused to the plant (five point scale): 4 (4=60-79%)
[2]; 62.5 g/ha
  ECHCG percentage damage caused to the plant (five point scale): 2 (2=20-39%)
[2]; 1000 g/ha
  ECHCG percentage damage caused to the plant (five point scale): 5 (5=80-100%)
Solanum nigrum (SOLNI); 62.5 g/ha
  SOLNI percentage damage caused to the plant (five point scale): 4 (4=60-79%)
Solanum nigrum (SOLNI); 1000 g/ha
  SOLNI percentage damage caused to the plant (five point scale): 5 (5=80-100%)
Setaria faberi (SETFA); 62.5 g/ha
  SETFA percentage damage caused to the plant (five point scale): 1 (1=0-19%)
Setaria faberi (SETFA); 1000 g/ha
  SETFA percentage damage caused to the plant (five point scale): 5 (5=80-100%)
[3]; 62.5 g/ha
  IPOHE percentage damage caused to the plant (five point scale): 4 (4=60-79%)
[3]; 1000 g/ha
  IPOHE percentage damage caused to the plant (five point scale): 4 (4=60-79%)

## Cc1nc(COc2c(Cl)ccc(F)c2-c2c(O)c(C)nn(C)c2=O)cs1 [Compound 1.33]
[1]; 62.5 g/ha
  AMARE percentage damage caused to the plant (five point scale): 3 (3=40-59%)
[1]; 1000 g/ha
  AMARE percentage damage caused to the plant (five point scale): 5 (5=80-100%)
Lolium perenne (LOLPE); 62.5 g/ha
  LOLPE percentage damage caused to the plant (five point scale): 2 (2=20-39%)
Lolium perenne (LOLPE); 1000 g/ha
  LOLPE percentage damage caused to the plant (five point scale): 4 (4=60-79%)
[2]; 62.5 g/ha
  ECHCG percentage damage caused to the plant (five point scale): 3 (3=40-59%)
[2]; 1000 g/ha
  ECHCG percentage damage caused to the plant (five point scale): 4 (4=60-79%)
Solanum nigrum (SOLNI); 62.5 g/ha
  SOLNI percentage damage caused to the plant (five point scale): 4 (4=60-79%)
Solanum nigrum (SOLNI); 1000 g/ha
  SOLNI percentage damage caused to the plant (five point scale): 5 (5=80-100%)
Setaria faberi (SETFA); 62.5 g/ha
  SETFA percentage damage caused to the plant (five point scale): 2 (2=20-39%)
Setaria faberi (SETFA); 1000 g/ha
  SETFA percentage damage caused to the plant (five point scale): 5 (5=80-100%)
[3]; 62.5 g/ha
  IPOHE percentage damage caused to the plant (five point scale): 4 (4=60-79%)
[3]; 1000 g/ha
  IPOHE percentage damage caused to the plant (five point scale): 5 (5=80-100%)

## CC1=NN(C)C(=O)C(c2c(Cl)ccc(Cl)c2OCc2cnc(Cl)s2)C1=O (stereo not drawn) [Compound 1.19, 4-[3,6-dichloro-2-[(2-chlorothiazol-5-yl)methoxy]phenyl]-2,6-dimethyl-pyridazine-3,5-dione]
[1]; 62.5 g/ha
  AMARE percentage damage caused to the plant (five point scale): 5 (5=80-100%)
[1]; 1000 g/ha
  AMARE percentage damage caused to the plant (five point scale): 5 (5=80-100%)
Lolium perenne (LOLPE); 62.5 g/ha
  LOLPE percentage damage caused to the plant (five point scale): 5 (5=80-100%)
Lolium perenne (LOLPE); 1000 g/ha
  LOLPE percentage damage caused to the plant (five point scale): 5 (5=80-100%)
[2]; 62.5 g/ha
  ECHCG percentage damage caused to the plant (five point scale): 3 (3=40-59%)
[2]; 1000 g/ha
  ECHCG percentage damage caused to the plant (five point scale): 5 (5=80-100%)
Solanum nigrum (SOLNI); 62.5 g/ha
  SOLNI percentage damage caused to the plant (five point scale): 5 (5=80-100%)
Solanum nigrum (SOLNI); 1000 g/ha
  SOLNI percentage damage caused to the plant (five point scale): 5 (5=80-100%)
Setaria faberi (SETFA); 62.5 g/ha
  SETFA percentage damage caused to the plant (five point scale): 5 (5=80-100%)
Setaria faberi (SETFA); 1000 g/ha
  SETFA percentage damage caused to the plant (five point scale): 5 (5=80-100%)
[3]; 62.5 g/ha
  IPOHE percentage damage caused to the plant (five point scale): 5 (5=80-100%)
[3]; 1000 g/ha
  IPOHE percentage damage caused to the plant (five point scale): 5 (5=80-100%)

## Cc1nn(C)c(=O)c(-c2c(F)ccc(Cl)c2OCc2ccncc2)c1O [Compound 1.24]
[1]; 62.5 g/ha
  AMARE percentage damage caused to the plant (five point scale): 2 (2=20-39%)
[1]; 1000 g/ha
  AMARE percentage damage caused to the plant (five point scale): 5 (5=80-100%)
Lolium perenne (LOLPE); 62.5 g/ha
  LOLPE percentage damage caused to the plant (five point scale): 1 (1=0-19%)
Lolium perenne (LOLPE); 1000 g/ha
  LOLPE percentage damage caused to the plant (five point scale): 5 (5=80-100%)
[2]; 62.5 g/ha
  ECHCG percentage damage caused to the plant (five point scale): 3 (3=40-59%)
[2]; 1000 g/ha
  ECHCG percentage damage caused to the plant (five point scale): 5 (5=80-100%)
Solanum nigrum (SOLNI); 62.5 g/ha
  SOLNI percentage damage caused to the plant (five point scale): 4 (4=60-79%)
Solanum nigrum (SOLNI); 1000 g/ha
  SOLNI percentage damage caused to the plant (five point scale): 5 (5=80-100%)
Setaria faberi (SETFA); 62.5 g/ha
  SETFA percentage damage caused to the plant (five point scale): 1 (1=0-19%)
Setaria faberi (SETFA); 1000 g/ha
  SETFA percentage damage caused to the plant (five point scale): 5 (5=80-100%)
[3]; 62.5 g/ha
  IPOHE percentage damage caused to the plant (five point scale): 4 (4=60-79%)
[3]; 1000 g/ha
  IPOHE percentage damage caused to the plant (five point scale): 5 (5=80-100%)

## Cc1nc(COc2c(Cl)ccc(Cl)c2-c2c(O)c(C)nn(C)c2=O)cs1 [Compound 1.12]
[1]; 62.5 g/ha
  AMARE percentage damage caused to the plant (five point scale): 3 (3=40-59%)
[1]; 1000 g/ha
  AMARE percentage damage caused to the plant (five point scale): 5 (5=80-100%)
Lolium perenne (LOLPE); 62.5 g/ha
  LOLPE percentage damage caused to the plant (five point scale): 1 (1=0-19%)
Lolium perenne (LOLPE); 1000 g/ha
  LOLPE percentage damage caused to the plant (five point scale): 4 (4=60-79%)
[2]; 62.5 g/ha
  ECHCG percentage damage caused to the plant (five point scale): 2 (2=20-39%)
[2]; 1000 g/ha
  ECHCG percentage damage caused to the plant (five point scale): 4 (4=60-79%)
Solanum nigrum (SOLNI); 62.5 g/ha
  SOLNI percentage damage caused to the plant (five point scale): 3 (3=40-59%)
Solanum nigrum (SOLNI); 1000 g/ha
  SOLNI percentage damage caused to the plant (five point scale): 5 (5=80-100%)
Setaria faberi (SETFA); 62.5 g/ha
  SETFA percentage damage caused to the plant (five point scale): 2 (2=20-39%)
Setaria faberi (SETFA); 1000 g/ha
  SETFA percentage damage caused to the plant (five point scale): 5 (5=80-100%)
[3]; 62.5 g/ha
  IPOHE percentage damage caused to the plant (five point scale): 4 (4=60-79%)
[3]; 1000 g/ha
  IPOHE percentage damage caused to the plant (five point scale): 5 (5=80-100%)

## Cc1nn(C)c(=O)c(-c2c(Cl)ccc(Cl)c2OCc2nccs2)c1O [Compound 1.04]
[1]; 62.5 g/ha
  AMARE percentage damage caused to the plant (five point scale): 5 (5=80-100%)
[1]; 1000 g/ha
  AMARE percentage damage caused to the plant (five point scale): 5 (5=80-100%)
Lolium perenne (LOLPE); 62.5 g/ha
  LOLPE percentage damage caused to the plant (five point scale): 3 (3=40-59%)
Lolium perenne (LOLPE); 1000 g/ha
  LOLPE percentage damage caused to the plant (five point scale): 5 (5=80-100%)
[2]; 62.5 g/ha
  ECHCG percentage damage caused to the plant (five point scale): 4 (4=60-79%)
[2]; 1000 g/ha
  ECHCG percentage damage caused to the plant (five point scale): 5 (5=80-100%)
Solanum nigrum (SOLNI); 62.5 g/ha
  SOLNI percentage damage caused to the plant (five point scale): 5 (5=80-100%)
Solanum nigrum (SOLNI); 1000 g/ha
  SOLNI percentage damage caused to the plant (five point scale): 5 (5=80-100%)
Setaria faberi (SETFA); 62.5 g/ha
  SETFA percentage damage caused to the plant (five point scale): 5 (5=80-100%)
Setaria faberi (SETFA); 1000 g/ha
  SETFA percentage damage caused to the plant (five point scale): 5 (5=80-100%)
[3]; 62.5 g/ha
  IPOHE percentage damage caused to the plant (five point scale): 5 (5=80-100%)
[3]; 1000 g/ha
  IPOHE percentage damage caused to the plant (five point scale): 5 (5=80-100%)
